Consider 5 molecules from patent publication US20060030611A1, “Enoximone sulfoxide enantiomers and their use in the treatment of PDE-III mediated diseases” (Myogen, Inc., priority 2004, published 2006).

The subject of series [1] is trabeculae from the right ventricular free wall of explanted human hearts. Nature of the series: Peak contractile force of isolated human right ventricular trabeculae in muscle bath. The class given is cell-based. To be noted: 37° C., 1.0 Hz field stimulation, increasing concentrations. Here is the method: Explanted human hearts were obtained from transplant recipients (n=7) and from nonfailing donor hearts (n=1). After excision, hearts were placed immediately into ice cold Tyrode's solution and aerated with 95% O2 and 5% CO2. Trabeculae between 1-3 mm in width and 7-10 mm in length were excised from the right ventricular free wall. Subsequently trabeculae were mounted in a multi-chamber muscle bath in oxygenated Tyrode's solution at 37° C. The trabeculae were placed under 1 gram of resting tension and a field stimulation of 1.0 Hz. […] Peak contractile forces were recorded at 10 minute intervals for a total of 1½ hours. Following experimentation, trabeculae were frozen in liquid N2.

Series [2] deals with T1, PDE-III isolated from human platelets (Homo sapiens, UniProt Q14432).
T1 construct: PDE-III isolated from human platelets; from tissue; host or cells: human platelets
T1 sequence (Q14432 whole entry): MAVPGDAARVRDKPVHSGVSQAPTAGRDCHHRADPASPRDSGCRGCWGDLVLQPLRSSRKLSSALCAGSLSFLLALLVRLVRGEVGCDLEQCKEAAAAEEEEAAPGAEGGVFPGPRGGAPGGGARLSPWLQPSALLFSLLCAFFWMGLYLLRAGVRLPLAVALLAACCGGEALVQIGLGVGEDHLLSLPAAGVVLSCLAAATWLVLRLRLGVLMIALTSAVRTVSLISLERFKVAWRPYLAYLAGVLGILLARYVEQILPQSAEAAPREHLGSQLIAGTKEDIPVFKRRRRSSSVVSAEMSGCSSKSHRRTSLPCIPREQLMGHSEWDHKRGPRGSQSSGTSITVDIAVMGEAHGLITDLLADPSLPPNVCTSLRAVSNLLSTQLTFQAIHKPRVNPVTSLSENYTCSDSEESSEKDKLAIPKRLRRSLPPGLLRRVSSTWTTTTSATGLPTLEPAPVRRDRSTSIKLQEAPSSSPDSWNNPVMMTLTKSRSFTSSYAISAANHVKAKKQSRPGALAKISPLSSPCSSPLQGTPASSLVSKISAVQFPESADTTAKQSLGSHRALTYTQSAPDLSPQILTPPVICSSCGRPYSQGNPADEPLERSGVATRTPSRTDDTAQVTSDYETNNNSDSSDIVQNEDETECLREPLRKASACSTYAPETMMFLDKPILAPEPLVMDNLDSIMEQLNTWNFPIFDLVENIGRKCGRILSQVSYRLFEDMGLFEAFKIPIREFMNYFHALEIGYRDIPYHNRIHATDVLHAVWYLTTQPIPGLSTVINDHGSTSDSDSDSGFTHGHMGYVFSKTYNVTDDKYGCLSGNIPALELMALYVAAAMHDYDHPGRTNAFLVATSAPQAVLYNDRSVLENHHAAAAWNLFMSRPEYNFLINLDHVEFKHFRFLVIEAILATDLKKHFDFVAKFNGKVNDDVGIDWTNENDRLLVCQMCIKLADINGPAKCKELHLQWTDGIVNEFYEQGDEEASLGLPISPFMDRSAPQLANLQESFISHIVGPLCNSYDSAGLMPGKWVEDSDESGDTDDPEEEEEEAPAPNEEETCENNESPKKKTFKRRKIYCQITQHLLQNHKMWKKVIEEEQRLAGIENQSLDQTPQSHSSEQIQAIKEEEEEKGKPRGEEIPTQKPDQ
Nature of the series: PDE-III inhibition, [3H]cAMP substrate. The class given is biochemical. To be noted: triplicate at three concentrations over log scale, semi-quantitative. Here is the method:
Enoximone Sulfoxide enantiomer was tested for its ability to inhibit the action of PDE-III isolated from human platelets. The substrate was [^3H]cAMP+cAMP, which is converted by PDE-III to […] and then […] can be quantified. Assays were done in triplicate at three different concentrations over log scale, allowing semi-quantitative measurement of IC50.

For series [3] the following is noted: cited from earlier work; for average steady-state plasma concentration: oral.
The test system of series [4] is men who suffer from ED. To be noted: ED of psychogenic or organic etiology, clinical studies; cited from earlier work.
Series [5] deals with PDE-III. To be noted: cited from earlier work.

Read-outs that look alike come from different tables or passages of the source. Where only a bound is given, the exact number is not on record here.

Regarding `Cc1[nH]c(=O)[nH]c1C(=O)c1ccc([S@@+](C)[O-])cc1` [(R)-(+)-enantiomer of enoximone sulfoxide, 1,3-Dihydro-4-methyl-5-[(4-methylsulfinyl)-benzoyl]-2H-imidazol-2-one hydrate], the “peak contractile force (net, T=0 baseline subtracted)” value in series [1] is on record as 550 mg of tension. In series [2], inhibition was half-maximal at 107 µM (IC50).
For `CSc1ccc(C(=O)c2[nH]c(=O)[nH]c2C)cc1` [Enoximone, 1,3-Dihydro-4-methyl-5-[4-(methylthio)benzoyl]-2H-imidazol-2-one], the “average steady-state plasma concentration” value is 115 ± 40 ng/mL in series [3] (50 mg every 8 hours) and 190 ± 78 ng/mL in series [3] (100 mg every 8 hours). For the same molecule, the mean clearance result in series [3] (patients with cardiac failure) was “about 10 ml/min/kg”. Moreover, the Bioavailability entry in series [3] (single oral dose of 3 mg/kg) is listed as “about 55%”.
Consider `CC(C)NCC(O)c1ccc(O)c(O)c1` (stereo not shown) [Isoproterenol], for which the “peak contractile force (net, T=0 baseline subtracted)” value in series [1] is > 1000 mg of tension.
Same read-out and setting: as for `Cc1[nH]c(=O)[nH]c1C(=O)c1ccc([S+](C)[O-])cc1.O` (stereo not shown) [Sulfoxide Metabolite 27996, 1,3-Dihydro-4-methyl-5-[(4-methylsulfinyl)-benzoyl]-2H-imidazol-2-one hydrate], the figure is 175 mg of tension.
With `CCCc1nn(C)c2c(=O)[nH]c(-c3cc(S(=O)(=O)N4CCN(C)CC4)ccc3OCC)nc12` [sildenafil, 5-[2-ethoxy-5-(4-methylpiperazin-1-ylsulphonyl)phenyl]-1-methyl-3-n-propyl-6,7-dihydro-1H-pyrazolo[4,3-d]pyrimidin-7-one], in series [4], the “men with improved sexual function” value was “about 70%”. Besides, the “inhibition of PDE-III” value in series [5] is on record as “negligible inhibition”.
